# Results: PMC7684578, “Isopedopeptins A–H: Cationic Cyclic Lipodepsipeptides from Pedobacter cryoconitis UP508 Targeting WHO Top-Priority Carbapenem-Resistant Bacteria” (ACS Chemical Biology, 2020)
# Where two headings read alike, the source gives them in different places. Starred links: 1 amine or outer side, 2 acyl side, 3 side chain; linkers in the order of their positions; H or OH if unused. Positions of bridges follow the written chain, without caps; N, C: chain ends. Non-standard residues stand in square brackets, D forms with d. Residues, ends and D or L forms follow the SMILES beside them. X2 = CCCCCCC[C@H](CC(=O)[*:1])O[*:2]; Val(3-OH) = CC(C)(O)[C@H](N)C(=O)O; X1 = C/C=C(/N[*:1])C(=O)[*:2]; Dab = NCC[C@H](N)C(=O)O; Dap = NC[C@H](N)C(=O)O
# Legend:
# Format in all cases: cell-based
# A. baumannii [1] = experiment: MIC, extended panel, broth micro-dilution in MHII (EUCAST/CLSI); conditions: Acinetobacter baumannii
# Method: (§1) Plates were, subsequently, incubated at 37 °C in the dark, and viable colonies counted after 16 to 24 h.
# (§2) To estimate MIC values (concentration range between 0.05 and 50 µg/mL), solutions of the tested compounds (100, 10 and 1 and if needed 0.1 µg/mL in MeOH) were dispensed into wells of microtiter plate(s) and the solvent was evaporated in a fume-hood. Subsequently, suspensions of pathogen cells in the appropriate medium were dispensed to the wells of microtiter plates and the growth of pathogens were observed after 16 to 20 h of incubation at 37 °C in the dark. Positive controls were the respective pathogen cells suspended in untreated sterile media without addition of compounds(s) and negative controls were the media only. MIC values were defined as the lowest concentration of each compound with no visible growth of pathogen. All MIC tests were performed in triplicate and […]
# (§3) MIC determination for compound 2 against an extended panel of bacterial strains.
# (§4) Compound 2 was evaluated against a panel of Gram-negative bacteria (Hughes strain collection), including: A. baumannii ATCC 19606, wild-type; BM4454, multidrug-resistant clinical isolate; BM4652, efflux-defective derivative of BM4454; CH9622, colistin-resistant clinical isolate; E. coli ATCC 25922, wild-type; CH3130, efflux-defective ΔtolC mutant isogenic to ATCC 25922; D22, a drug-hypersensitive lpxC mutant of E. coli; CH3491, multidrug-resistant clinical isolate; CH9623 and CH9624, colistin-resistant clinical isolates carrying mcr-1; K. pneumoniae ATCC 13833, wild-type; […]
# (§5) clinical isolate; CH9625 and CH9626, colistin-resistant clinical isolates; P. aeruginosa PAO1, wild-type; PAO750, efflux-defective mutant isogenic to PAO1. The in vitro antimicrobial activity of each compound was determined by measuring the MIC value using the broth micro-dilution technique in cation-adjusted Mueller-Hinton II broth (Becton-Dickinson, 212322) according to EUCAST and CLSI guidelines. Each compound prepared in MHII medium was dispensed into a 96-well round-bottomed microtiter plate to give final assay concentrations from 64 µg/mL down to 0.25 µg/mL (two-fold dilution series in 10 wells, plus two control wells: medium control with no bacteria or compound, and growth control with bacteria added but no compound). Bacteria were prepared from fresh colonies grown on non-selective MHII agar, then suspended in saline to 0.5 McFarland (≅ 1.5 × […]
# (§6) 10^8 CFU/mL) with turbidity assessed using a Sensititre Nephelometer (Trek Diagnostics Systems Ltd, UK). 50 µL of this bacterial suspension was transferred to 10 mL of MHII broth to give a final bacterial concentration ≅ 5 × 10^5 CFU/mL (acceptable range 3 – 7 × 10^5 CFU/mL). 50 µL of bacterial suspension was pipetted into each well (except the medium control well, where 50 µL MHII was pipetted). Final volume in each well was 100 µL. Plates were covered and incubated without shaking for 18-20 h at 35 °C ± 2 °C. MIC was read visually, as complete inhibition of growth by the unaided eye, using the medium-only wells as the control. Each compound was assayed at least in duplicate.
# (§7) Additionally, the MIC for compound 2 against clinical carbapenem-resistant strains of A. baumannii […]
# (§8) determined at the Public Health Agency of Sweden (according to EUCAST recommendations).
# (§9) In vitro Cytotoxicity Determination. In vitro cytotoxicity was determined by a fluorometric microculture cytotoxicity assay,7 based on hydrolysis of fluorescein diacetate to fluorescein by cells with intact plasma membranes. In short, HepG2 cells (hepatocellular carcinoma cells, ATCC), in Eagle's Minimum Essential Medium (ATCC) supplemented with 10 % fetal bovine serum, penicillin/streptomycin (100 U/100 µg/mL) and 2 mM L-glutamine, were seeded in 384-well assay plates at a density of 1000 cells/well. The cells were incubated over night at 37°C and compounds in 10 mM DMSO were added, to obtain final concentrations 64 µM – 0.25 µM in two-fold dilutions.
# (§10) After incubation for 72 h at 37°C, the cells were pelleted and washed. Fluorescein diacetate was […]
# E. coli [2] = experiment: as above; conditions: Escherichia coli
# Method: as §1, §2, §3, §4, §5, §6, §7, §8, §9, §10
# K. pneumoniae = experiment: as above; conditions: Klebsiella pneumoniae
# Method: as §1, §2, §3, §4, §5, §6, §7, §8, §9, §10
# P. aeruginosa = experiment: as above; conditions: Pseudomonas aeruginosa
# Method: as §1, §2, §3, §4, §5, §6, §7, §8, §9, §10
# A. baumannii [3] = experiment: MIC determined at the Public Health Agency of Sweden (EUCAST); conditions: Acinetobacter baumannii
# Method: as §6, §7, §8, §9
# (§11) After incubation for 72 h at 37°C, the cells were pelleted and washed. Fluorescein diacetate was added (1 µL, 0.5 mg/mL) and the fluorescence [485 nm(exc)/530 nm(em.)] was measured after 50 min at 37°C. Bortezomib (2 µM) was used as positive control and dose response testing of doxorubicin (top concentration 2 µM) was performed repeatedly to follow assay performance over time. Cytotoxicity was assessed after 72 h with cell survival presented as survival index (SI, %) defined as fluorescence in test wells in percent of control cultures with blank values subtracted.
# (§12) Criteria for a successful assay include a signal-to-noise ratio in control cultures >10, CV <30% and a 7 Lindhagen, E., Nygren, P., and Larsson, R. (2008) The fluorometric microculture cytotoxicity assay. Nat.
# E. coli [4] = experiment: as above; conditions: Escherichia coli
# Method: as §6, §7, §8, §9, §11, §12
smiles,measurement,setting,value
"C/C=C1/NC(=O)[C@H](CCN)NC(=O)[C@H](CC(C)C)NC(=O)[C@H](CN)NC(=O)C[C@@H](CCCCCCC)OC(=O)[C@H](CC(=O)O)NC(=O)[C@H](C(C)(C)O)NC(=O)[C@@H](Cc2ccccc2)NC(=O)[C@H](CN)NC(=O)[C@H]([C@@H](C)O)NC1=O [Compound 2, isopedopeptin B] ([Dap]L[Dab][X1]T[Dap][dF][Val(3-OH)]D; linker N-C via X2)",MIC,"A. baumannii [1]; ATCC19606, WT, read-out: MIC A. baumannii ATCC19606",8 µg/mL
same,MIC,"A. baumannii [1]; Col (colistin-resistant), read-out: MIC A. baumannii EN0287",8 µg/mL
same,MIC,"A. baumannii [1]; MDR clinical, read-out: MIC A. baumannii BM4454",8 µg/mL
same,MIC,"A. baumannii [1]; read-out: MIC A. baumannii BM4652, efflux-defective derivative of BM4454",8 µg/mL
same,MIC,"A. baumannii [1]; read-out: MIC colistin-resistant strains of A. baumannii, strains not named",≥ 8 µg/mL
same,MIC,"E. coli [2]; ATCC25922, WT, read-out: MIC E. coli ATCC25922",8 µg/mL
same,MIC,"E. coli [2]; ATCC25922, read-out: MIC E. coli CH3130, ΔtolC mutant isogenic to ATCC25922",8 µg/mL
same,MIC,"E. coli [2]; ESC, CIP, GEN, SXT, read-out: MIC E. coli CH3491",8 µg/mL
same,MIC,"E. coli [2]; read-out: MIC E. coli D22, lpxC mutant, hypersensitive",4 µg/mL
same,MIC,"K. pneumoniae; ATCC13833, WT, read-out: MIC K. pneumoniae ATCC13833",4 µg/mL
same,MIC,"K. pneumoniae; Col, read-out: MIC K. pneumoniae CH9625",4 µg/mL
same,MIC,"K. pneumoniae; Col, read-out: MIC K. pneumoniae CH9626",4 µg/mL
same,MIC,"K. pneumoniae; ESC, CARBA, CIP, GEN, AMK, SXT, TET, clinical multidrug-resistant, read-out: MIC K. pneumoniae CH3498",8 µg/mL
same,MIC,"K. pneumoniae; WT, read-out: MIC K. pneumoniae 1161486",8 µg/mL
same,MIC,"K. pneumoniae; read-out: MIC K. pneumoniae 1161486a, ΔtolC mutant isogenic to 1161486",8 µg/mL
same,MIC,"K. pneumoniae; read-out: MIC colistin-resistant strains of K. pneumoniae, strains not named",≥ 4 µg/mL
same,MIC,"P. aeruginosa; PAO1, read-out: MIC P. aeruginosa PAO750",32 µg/mL
same,MIC,"P. aeruginosa; PAO1, WT, read-out: MIC P. aeruginosa PAO1",32 µg/mL
same,MIC,"A. baumannii [3]; CARBA, Public Health Agency of Sweden, read-out: MIC A. baumannii A219",2 µg/mL
same,MIC,"A. baumannii [3]; CARBA, Public Health Agency of Sweden, read-out: MIC A. baumannii A250",2 µg/mL
same,MIC,"A. baumannii [3]; summary in text over strains, strains not named, read-out: MIC carbapenem-resistant A. baumannii",≥ 1 µg/mL
same,MIC,"E. coli [4]; ATCC25922, WT, Public Health Agency of Sweden, read-out: MIC E. coli ATCC25922",1 µg/mL
same,MIC,"E. coli [4]; CARBA, Public Health Agency of Sweden, read-out: MIC E. coli EC4129",2 µg/mL
same,MIC,"E. coli [4]; CARBA, Public Health Agency of Sweden, read-out: MIC E. coli EC4163",1 µg/mL
same,MIC,"E. coli [4]; summary in text over strains, strains not named, read-out: MIC carbapenem-resistant E. coli",≥ 2 µg/mL
